Test results published in ChEMBL document CHEMBL1201862, “PubChem BioAssay data set” (2004).
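Interpolation was linear, between the two tested concentrations surrounding the appropriate level; five concentrations were tested over 48 hours in 96-well plates. GI50 = concentration required for 50% inhibition of growth.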 Calls of active or inactive are those of the source. Cut-off read from the data, not from the text of the source: active = GI50 up to about 1.1 µM and inactive = higher.

What was measured:
Assay in all cases: NCI tumour cell line growth inhibition, 48 h
[1] = system: A498
[2] = system: ACHN
[3] = system: EKVX
[4] = system: HCT-116
[5] = system: HCT-15
[6] = system: IGROV-1
[7] = system: MDA-MB-231
[8] = system: MDA-MB-435
[9] = system: MDA-N
[10] = system: Malme-3M
[11] = system: NCI-H23
[12] = system: NCI/ADR-RES
[13] = system: SN12C
[14] = system: SNB-19
[15] = system: SNB-75
[16] = system: T47D
[17] = system: TK-10
[18] = system: UACC-62
[19] = system: CAKI-1
[20] = system: SK-MEL-5

| SMILES | GI50 [1] | GI50 [2] | GI50 [3] | GI50 [4] | GI50 [5] | GI50 [6] | GI50 [7] | GI50 [8] | GI50 [9] | GI50 [10] | GI50 [11] | GI50 [12] | GI50 [13] | GI50 [14] | GI50 [15] | GI50 [16] | GI50 [17] | GI50 [18] | GI50 [19] | GI50 [20] |
| --- | --- | --- | --- | --- | --- | --- | --- | --- | --- | --- | --- | --- | --- | --- | --- | --- | --- | --- | --- | --- |
| O=C1CC2(c3ccccc3)ON=C(c3ccccc3)N2c2ccccc2N1 (centres undefined) | 95.3 µM (inactive) | 61.8 µM (inactive) | 57.1 µM (inactive) | 34.3 µM (inactive) | 53.8 µM | 58.5 µM (inactive) | 40.8 µM (inactive) | 20 µM (inactive) | 32.7 µM (inactive) | 44.5 µM (inactive) | 47.3 µM (inactive) | 35.1 µM (inactive) | 52.7 µM (inactive) | > 100 µM (inactive) | 52 µM (inactive) | 24.6 µM (inactive) | 93.5 µM (inactive) | 37.5 µM (inactive) |  |  |
| CN(C)c1ccc(/C=C2\C[C@H]3[C@@H]4CCc5cc(OCCN6CCCC6)ccc5[C@H]4CC[C@]3(C)C2=O)cc1 | 1.96 µM (inactive) | 1.73 µM (inactive) | 2.2 µM (inactive) | 1.21 µM (inactive) | 1.26 µM | 1.13 µM (inactive) | 1.53 µM (inactive) | 1.55 µM (inactive) | 1.85 µM (inactive) |  | 3.25 µM (inactive) | 1.91 µM (inactive) | 1.62 µM (inactive) | 1.89 µM (inactive) | 1.71 µM (inactive) | 1.77 µM (inactive) | 1.64 µM (inactive) | 1.9 µM (inactive) | 1.45 µM (inactive) | 1.73 µM (inactive) |
| Cc1cc(C)c2c(=O)n(CC(O)CN(Cc3ccccc3)CC(O)Cn3sc4nc(C)cc(C)c4c3=O)sc2n1 (centres undefined) |  | 16.5 µM (inactive) | 22.2 µM (inactive) | 17.3 µM (inactive) | 17.3 µM | 17.7 µM (inactive) | 17.7 µM (inactive) | 17 µM (inactive) | 17.9 µM (inactive) | 14.3 µM (inactive) | 18 µM (inactive) | 22.4 µM (inactive) | 18.1 µM (inactive) | 18.5 µM (inactive) | 15.5 µM (inactive) | 18.2 µM (inactive) | 17.4 µM (inactive) | 16.9 µM (inactive) | 18.8 µM (inactive) | 16.4 µM (inactive) |
| COc1ccc2c(c1)/C(=C\c1c(C)nc3n1CCS3)C(=O)N2 | 17.8 µM (inactive) | 40.5 µM (inactive) | 34.5 µM (inactive) | 19.2 µM (inactive) | 9.4 µM | 16.7 µM (inactive) | 30.5 µM (inactive) | 3.12 µM (inactive) | 3.29 µM (inactive) |  | 24.5 µM (inactive) | 26.8 µM (inactive) | 26.5 µM (inactive) | 33.8 µM (inactive) | 28.1 µM (inactive) | 27.7 µM (inactive) | 35.8 µM (inactive) | 22.7 µM (inactive) | 33.4 µM (inactive) | 34 µM (inactive) |
| COc1ccccc1C1Nn2c(nc3ccccc3c2=O)N1c1ccc(C)cc1 (centres undefined) |  | 4 µM (inactive) | 11.4 µM (inactive) | 4.23 µM (inactive) | 3.49 µM | 6.34 µM (inactive) | 5.62 µM (inactive) | 8.2 µM (inactive) | 5.83 µM (inactive) | 14.4 µM (inactive) | 10.9 µM (inactive) | 9.06 µM (inactive) | 5.87 µM (inactive) | 6.59 µM (inactive) | 14.9 µM (inactive) | 4.82 µM (inactive) | 6.41 µM (inactive) | 9.31 µM (inactive) | 7.83 µM (inactive) | 7.45 µM (inactive) |
